Each block holds one molecule with its values, some of them ahead of it.
What was measured:
HeLa cells [1] = experiment: MTT anti-proliferation assay, HeLa; assay type: cell-based, human; settings: 48 h, mean ± SD
Protocol: All cell types, at a volume of 200 µL per well, were inoculated in 96-well plates at a density of 2.5 × 10^4 cells / mL and cultured for 24 h in an incubator with 5% CO2 at 37 °C. The old culture medium was replaced with 200 µL of fresh medium per well containing positive compounds, at concentrations of 1, 6.25, 12.5, 25, 50, and 100 μM. After 48 h of culture, 20 µL per well of 5 mg·mL^−1 MTT solution was added. After 4 h of culture, the old solution was discarded, and 150 µL per well of DMSO solution was added. Using an enzyme labeler (Thermo Fisher Scientific, Multiskan GO, Waltham, MA, USA), the plates were shaken for 10 min, OD values were determined at 490 nm, and the inhibition rate was calculated. Non-linear regression fitting of the cell growth rate was carried out using SPSS 23.0, and the IC50 of the compound was calculated. The inhibition rate was calculated using the formula: [(ODempty − ODtest)/(ODempty − ODnegative group)] × 100%, (ODempty blank group absorbance, ODtest absorbance of administration group, ODnegative group without cell culture medium). Each group contained six compound holes, and the experimental results averaged three trials. Complete medium containing only cells was used as the blank control; a complete medium without cells as was used as the negative control; and cisplatin, paclitaxel, and adriamycin were used as the positive controls. The concentration gradient was the same as that used for compounds 3a–3p. […]

C33A cells = experiment: MTT anti-proliferation assay, C33A; assay type: cell-based, human; settings: 48 h, mean ± SD
Protocol: (§1) All cell types, at a volume of 200 µL per well, were inoculated in 96-well plates at a density of 2.5 × 10^4 cells / mL and cultured for 24 h in an incubator with 5% CO2 at 37 °C. The old culture medium was replaced with 200 µL of fresh medium per well containing positive compounds, at concentrations of 1, 6.25, 12.5, 25, 50, and 100 μM. After 48 h of culture, 20 µL per well of 5 mg·mL^−1 MTT solution was added. After 4 h of culture, the old solution was discarded, and 150 µL per well of DMSO solution was added. Using an enzyme labeler (Thermo Fisher Scientific, Multiskan GO, Waltham, MA, USA), the plates were shaken for 10 min, OD values were determined at 490 nm, and the inhibition rate was calculated. Non-linear regression fitting of the cell growth rate was carried out using SPSS 23.0, and the IC50 of the compound was calculated. The inhibition rate was calculated using the formula: [(ODempty − ODtest)/(ODempty − ODnegative group)] × 100%, (ODempty blank group absorbance, ODtest absorbance of administration group, ODnegative group without cell culture medium). Each group contained six compound holes, and the experimental results averaged three trials. Complete medium containing only cells was used as the blank control; a complete medium without cells as was used as the negative control; and cisplatin, paclitaxel, and adriamycin were used as the positive controls. The concentration gradient was the same as that used for compounds 3a–3p.

[2] = system: human cervical epithelial cells H8; experiment: MTT toxicity assay, normal cervical epithelial cells H8; assay type: cell-based; settings: 48 h, mean ± SD
Protocol: as §1

HeLa/DDP cells [3] = experiment: MTT anti-cisplatin-resistant cervical cancer activity, HeLa/DDP; assay type: cell-based, human; settings: for resistance index (RI): HeLa/DDP versus parental HeLa; for resistance index (RI) / IC50: 48 h; for IC50: HeLa/DDP, MTT, mean ± SD
Protocol: as §1
To mitigate the detrimental consequences arising from the fixation of resistance reversal agents, concentrations that yielded a tumor cell proliferation rate reduction of less than 10% were selected. Consequently, the inhibitory efficacy of compound 3k against HeLa/DDP cells was assessed in conjunction with cisplatin at concentrations of 0.25, 0.5, and 1 μM. The experimental procedure employed was akin to that elucidated in Section 3.3.2. The impact of verapamil (6 μM) and 3k (0.25, 0.5, and 1 μM) on P-gp expression was ascertained via Western blot experiments, employing the same methodology delineated in Section 3.3.4.

HeLa cells [4] = experiment: Annexin V-FITC/PI pro-apoptosis assay, HeLa; assay type: cell-based, human; settings: 24 h
Protocol: (§2) Cell fluid (2 mL per well) at a concentration of 1.5 × 10^5 cells / mL was added to a 6-well plate and cultured in a cell incubator with 5% CO2 at 37 °C for 24 h. The old solution was discarded; 2 mL of the medium containing compound 3k was added to each well at a concentration gradient of 2.5, 5, and 10 μM; and the experiment was repeated three times at each concentration. Complete medium containing only cells was used as a blank control group, and 20 μM of cisplatin injection and chalcone was used as a positive control. Cells were harvested following a 24 h incubation period, adhering to the guidelines provided with the BD kit (BD Biosciences Pharmingen, 556547, 10975 Torreyana Road, San Diego, CA, USA). Subsequently, the cells were subjected to staining in a light-restricted environment at ambient temperature for a duration of 15 min, followed by filtration and analysis via flow cytometry.

HeLa/DDP cells [5] = experiment: Annexin V-FITC/PI pro-apoptosis assay, HeLa/DDP; assay type: cell-based, human; settings: 24 h
Protocol: as §2
The pro-apoptotic experiments of compound 3k, cisplatin, and chalcone on HeLa/DDP were performed in the same way as in Section 3.3.3. Western Blotting Analysis in the same way as in Section 3.3.4.

HeLa/DDP cells [6] = experiment: Cell cycle experiment (PI flow cytometry), HeLa/DDP; assay type: cell-based, human; settings: 24 h; for blocking rate at the G2/M phase: control 4.05%
Protocol: A 2 mL volume of cell fluid per well at a concentration of 1 × 10^6 cells / mL was inoculated into a 6-well plate and cultured for 24 h. After removing the old solution, 2 mL of the cell culture medium containing 3k was added to each well, and each well was exposed for 24 h to a concentration gradient of 2.5, 5, and 10 μM. The experiment was repeated three times for each concentration. Complete culture medium containing only cells was used as the blank control group, and 20 μM cisplatin and chalcone injection were used as the positive control group. After 24 h of treatment, the cells were collected in a 15 mL centrifuge tube and fixed with 75% ethanol at 4 °C for 24 h. A 400 µL volume of PI/RNase staining buffer (BD Biosciences Pharmingen, 550825, 10975 Torreyana Road, San Diego, CA, USA) was uniformly dispersed and subjected to staining for 15 min at room temperature […]. The sample was subsequently filtered and analyzed using up-flow cytometry (BD, LSRFortessa, New York, NY, USA).
The experimental methods for the effect of compound 3k, cisplatin, and chalcone on the HeLa/DDP cell cycle were the same as in Section 3.3.5.

SMILES: N.N.[Cl][Pt][Cl] [Cisplatin, cisplatin, reference compound]
- IC50 (HeLa cells [1]): 13 ± 1.82 µM
- IC50 (C33A cells): 6.05 ± 1.15 µM
- IC50 [2]: 25.2 ± 1.29 µM
- resistance index (RI) (HeLa/DDP cells [3]): 7.90
- IC50 (HeLa/DDP cells [3]): 103 ± 3.6 µM
- pro-apoptotic rate (HeLa cells [4]; 20 μM): 46.7%
- pro-apoptotic rate (HeLa/DDP cells [5]; 20 μM): 15.0%
- percentage of cells in G0/G1 phase (HeLa/DDP cells [6]; 20 μM, control 57.03%): 65.07%

- IC50 (HeLa cells [1]; Homo sapiens): 9.05 ± 0.53 µM
- IC50 (HeLa/DDP cells [3]; Homo sapiens): 9.72 ± 0.73 µM
SMILES: COc1ccc(/C=C(\C)C(=O)c2ccc(Cl)c(Cl)c2)cc1OC [Compound 3k, (E)-1-(3,4-Dichlorophenyl)-3-(3,4-dimethoxyphenyl)-2-methylprop-2-en-1-one]
- IC50 (C33A cells; Homo sapiens, C-33-A): 12.1 ± 2.44 µM
- IC50 ([2]; Homo sapiens, Epithelial cell): > 100 µM
- resistance index (RI) (HeLa/DDP cells [3]): 1.07
- inhibition rate against HeLa/DDP cell lines (HeLa/DDP cells [3]; HeLa/DDP, 0.25, 0.5, or 1 μM): less than 10%
- pro-apoptotic rate (HeLa cells [4]; 2.5 μM): 29.6%
- pro-apoptotic rate (HeLa cells [4]; 5 μM): 47.2%
- pro-apoptotic rate (HeLa cells [4]; 10 μM): 64.8%
- pro-apoptotic rate (HeLa/DDP cells [5]; 2.5 μM): 36.7%
- pro-apoptotic rate (HeLa/DDP cells [5]; 5 μM): 46.3%
- pro-apoptotic rate (HeLa/DDP cells [5]; 10 μM): 63.7%
- blocking rate at the G2/M phase (HeLa/DDP cells [6]; 2.5 μM): 14.71%
- blocking rate at the G2/M phase (HeLa/DDP cells [6]; 5 μM): 22.85%
- blocking rate at the G2/M phase (HeLa/DDP cells [6]; 10 μM): 52.72%
